Key:
Assay in all cases: relative viability (nuclei count vs DMSO), 5 days (fraction); higher = more cells survive
TPCA-1 + Alpelisib = compound: C1=CC(=CC=C1C2=CC(=C(S2)NC(=O)N)C(=O)N)F [TPCA-1] + Cc1nc(NC(=O)N2CCC[C@H]2C(N)=O)sc1-c1ccnc(C(C)(C)C(F)(F)F)c1 [Alpelisib] (partner 2 µM)
Procedure, shortened: (§1)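 Relative viability is defined as nuclei in treated wells over nuclei in vehicle wells. Duplicate plates were run and medians reported. Lung cancer cell lines in 1536-well plates were dosed by pin tool one day after seeding, with one drug or with a fixed anchor-drug dose plus five library-drug doses (not always all listed) in √10 steps, and nuclei were counted after 5 days.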

TPCA-1 + Vorinostat = compound: C1=CC(=CC=C1C2=CC(=C(S2)NC(=O)N)C(=O)N)F [TPCA-1] + O=C(CCCCCCC(=O)Nc1ccccc1)NO [Vorinostat] (partner 1 µM)
Procedure, shortened: as §1

[1] = compound: C[C@]12O[C@H](C[C@]1(O)CO)n1c3ccccc3c3c4c(c5c6ccccc6n2c5c31)CNC4=O [Lestaurtinib] + Cc1cc(Nc2cc(N3CCN(C)CC3)nc(Sc3ccc(NC(=O)C4CC4)cc3)n2)n[nH]1 [Tozasertib] (partner 0.1 µM)
Procedure, shortened: as §1

Lestaurtinib + Dasatinib = compound: C[C@]12O[C@H](C[C@]1(O)CO)n1c3ccccc3c3c4c(c5c6ccccc6n2c5c31)CNC4=O [Lestaurtinib] + Cc1nc(Nc2ncc(C(=O)Nc3c(C)cccc3Cl)s2)cc(N2CCN(CCO)CC2)n1 [Dasatinib] (partner 0.075 µM)
Procedure, shortened: as §1

Cell Line	relative viability (TPCA-1 + Alpelisib; first compound 0.04 µM)	relative viability (TPCA-1 + Alpelisib; first compound 0.1265 µM)	relative viability (TPCA-1 + Alpelisib; first compound 0.4 µM)	relative viability (TPCA-1 + Alpelisib; first compound 1.265 µM)	relative viability (TPCA-1 + Alpelisib; first compound 4 µM)	relative viability (TPCA-1 + Vorinostat; first compound 0.04 µM)	relative viability (TPCA-1 + Vorinostat; first compound 0.1265 µM)	relative viability (TPCA-1 + Vorinostat; first compound 0.4 µM)	relative viability (TPCA-1 + Vorinostat; first compound 1.265 µM)	relative viability (TPCA-1 + Vorinostat; first compound 4 µM)	relative viability ([1]; first compound 0.005 µM)	relative viability ([1]; first compound 0.01581 µM)	relative viability ([1]; first compound 0.05 µM)	relative viability ([1]; first compound 0.1581 µM)	relative viability ([1]; first compound 0.5 µM)	relative viability (Lestaurtinib + Dasatinib; first compound 0.005 µM)	relative viability (Lestaurtinib + Dasatinib; first compound 0.01581 µM)	relative viability (Lestaurtinib + Dasatinib; first compound 0.05 µM)	relative viability (Lestaurtinib + Dasatinib; first compound 0.1581 µM)	relative viability (Lestaurtinib + Dasatinib; first compound 0.5 µM)
HCC-15	0.862	0.705	0.915	0.863	0.779	0.914	0.758	0.84	0.782	0.806	0.598	0.599	0.232	0.235	0.107	0.73	0.702	0.485	0.38	0.169
H3255	0.784	0.655	0.642	0.529	0.554	0.82	0.461	0.819	0.694	0.512	0.611	0.884	0.633	0.587	0.5	0.291	0.428	0.299	0.342	0.323
NCI-H596	0.545	0.485	0.442	0.428	0.345	0.64	0.613	0.696	0.668	0.616	0.885	1.16	0.746	1.06	0.955	0.669	0.6	0.678	0.694	0.564
NCI-H2087	1.06	0.871	0.916	1.06	0.418	0.734	0.759	0.911	0.629	0.266	0.321	0.378	0.208	0.265	0.212	0.843	0.81	0.494	0.724	0.319
NCI-H661	1.01	0.2	0.768	0.546	0.487	0.739	0.759	0.806	0.754	0.483	0.359	0.361	0.395	0.423	0.417	0.99	0.953	0.851	0.81	0.319
EMC-BAC-2	0.791	0.705	0.721	0.724	0.589	0.461	0.447	0.615	0.413	0.203	0.279	0.206	0.283	0.22	0.183	0.291	0.2	0.255	0.25	0.19
NCI-H1355	0.802	0.567	0.871	0.761	0.555	0.735	0.603	0.611	0.582	0.553	0.51	0.52	0.377	0.441	0.287	0.639	0.777	0.58	0.495	0.259
NCI-H23	0.756	0.665	0.705	0.587	0.512	0.392	0.579	0.546	0.526	0.161	0.492	0.343	0.3	0.439	0.237	0.856	0.911	0.739	0.847	0.483
NCI-H1651	1.03	0.82	0.988	1.09	0.863	0.571	0.429	0.629	0.496	0.239	0.706	0.756	0.771	0.694	0.492	0.395	0.557	0.393	0.443	0.248
NCI-H1975	0.768	0.561	0.611	0.561	0.279	0.724	0.699	0.712	0.632	0.444	0.943	1.02	0.715	0.552	0.486	0.479	0.396	0.373	0.328	0.257
COR-L23	0.904	0.812	0.72	0.632	0.421	0.502	0.424	0.484	0.292	0.153	0.197	0.229	0.184	0.174	0.184	0.539	0.699	0.296	0.455	0.121
LOU-NH91	0.769	0.652	0.736	0.78	0.669	0.937	0.925	0.908	0.851	0.674	0.61	0.602	0.628	0.496	0.295	0.581	0.575	0.415	0.397	0.372
NCI-H441	0.903	0.497	0.611	0.439	0.327	0.776	0.636	0.717	0.577	0.476	0.711	0.719	0.537	0.651	0.442	0.521	0.58	0.431	0.548	0.482
NCI-H647	1.35	1.04	1.23	0.834	0.562	0.48	0.599	0.518	0.312	0.218	0.375	0.328	0.188	0.124	0.126	0.278	0.147	0.0914	0.0755	0.0624
NCI-H1915	1.11	1.05	1.08	1.03	0.936	0.541	0.5	0.537	0.392	0.386	0.498	0.532	0.363	0.49	0.214	0.37	0.272	0.243	0.236	0.191
NCI-H1734	0.726	0.571	0.767	0.69	0.686	0.957	0.737	0.88	0.839	0.279	0.289	0.153	0.247	0.214	0.178	0.48	0.518	0.42	0.263	0.143
NCI-H1993	0.654		0.711	0.633	0.731	0.877	0.74	0.921	0.694	0.533	0.636	0.545	0.57	0.54	0.529	0.565	0.32	0.504	0.495	0.468
LK-2	1.23	0.758	0.946	0.692	0.627	0.343	0.161	0.287	0.267	0.237	0.161	0.183	0.165	0.17	0.164	0.296	0.255	0.241	0.275	0.158
HCC-78	0.36	0.315	0.362	0.311	0.262	0.445	0.422	0.42	0.469	0.28	0.434	0.363	0.436	0.353	0.183	0.341	0.669	0.294	0.25	0.218
NCI-H2405	1.06	0.599	0.805		0.605	1.12	0.983	1.15	0.975	0.103	0.797	0.814	0.78	0.511	0.271	0.199	0.211	0.186	0.196	0.17
HOP-62	1.05	0.602	0.898	0.874	0.914	0.771	0.52	0.688	0.381	0.176	0.35	0.43	0.396	0.356	0.234	0.66	0.721	0.504	0.499	0.241
NCI-H650	1.11	1.02	1.02	0.633	0.859	0.414	0.402	0.41	0.308	0.27	0.727	0.802	0.603	0.483	0.29	0.405	0.397	0.301	0.315	0.232
NCI-H358	1	0.65	0.911	0.55	0.364	0.695	0.576	0.634	0.409	0.168	0.103	0.0848	0.0849	0.0845	0.0896	0.15	0.129	0.162	0.105	0.115
BEN	1.14	0.842	1.13	1.19	0.806	0.56	0.543	0.624	0.634	0.441	0.561	0.53	0.428	0.377	0.217	0.3	0.322	0.265	0.313	0.184
SW 1573	0.872	0.631	0.659	0.709	0.784	0.998	0.6	0.876	0.787	0.233	0.146	0.172	0.142	0.1	0.116	0.605	0.454	0.246	0.162	0.0823
SK-MES-1	0.935	0.704	0.996	0.691	0.586	1.14	1.01	0.966	1.02	0.438	0.966	0.834	0.341	0.455	0.197	0.396	0.333	0.426	0.206	0.159
NCI-H1755	0.937	0.88	0.893	0.806	0.526	0.717	0.84	0.813	0.667	0.554	0.607	0.693	0.589	0.461	0.372	0.439	0.424	0.293	0.288	0.208

From the supplement of paper PMC10307832
